Values after ≈ are worked out from the molar mass of the structure shown.
system: P388; assay: Cytotoxicity against mouse P388 cells; assay type: functional, cell-based

Compared with `C=C1[C@@H](OC(=O)/C=C/c2ccccc2)C[C@H](OC(C)=O)[C@@]2(C)[C@@H](OC(C)=O)[C@H](OC(C)=O)C3=C(C)[C@@H](OC(C)=O)C[C@@H]([C@@H](O)[C@H]12)C3(C)C`, `CC(=O)O[C@@H]1C2=C(C)C(=O)C[C@@](O)([C@@H](OC(=O)c3ccccc3)[C@@H]3[C@]4(OC(C)=O)CO[C@@H]4C[C@H](O)[C@@]3(C)[C@H]1O)C2(C)C` is 5.4-fold higher in IC50: 3.9 µg/mL (≈ 5.85 µM) for the first, 21 µg/mL (≈ 35.8 µM) for the second.

`CC(=O)O[C@H]1C[C@H]2OC[C@@]2(OC(C)=O)[C@H]2[C@H](OC(=O)c3ccccc3)[C@]3(C(C)(C)O)C[C@H](O)C(C)=C3[C@@H](O)[C@H](O)[C@]12C` was tested, and the IC50 was 44 µg/mL (≈ 74.7 µM).
